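Following 48 hours of exposure in 96-well plates, responses at five concentrations were used to interpolate endpoints linearly. At the TGI there is no net growth.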
Tests used:
Experiment in all cases: NCI anticancer screen, dose series, 48 h
[1] = test system: NCI-H522 lung
[2] = test system: TK-10 renal
[3] = test system: OVCAR-5 ovarian
[4] = test system: SNB-19 CNS
[5] = test system: SNB-78 CNS
[6] = test system: SN12C renal
[7] = test system: SNB-75 CNS
[8] = test system: RPMI-8226 leukemia
[9] = test system: HCC-2998 colon
[10] = test system: UO-31 renal
[11] = test system: SF-268 CNS
[12] = test system: M14 melanoma
[13] = test system: SR leukemia
[14] = test system: ACHN renal
[15] = test system: OVCAR-4 ovarian
[16] = test system: UACC-257 melanoma
[17] = test system: MALME-3M melanoma
[18] = test system: EKVX NSCLC
[19] = test system: COLO 205 colon
[20] = test system: DMS 114 small cell lung
[21] = test system: IGROV1 ovarian
[22] = test system: SW-620 colon
[23] = test system: U251 CNS
[24] = test system: KM20L2 colon
[25] = test system: HL-60(TB) leukemia
[26] = test system: NCI-H23 lung
[27] = test system: RXF-631 renal
[28] = test system: NCI-H460 lung
[29] = test system: SF-539 CNS
[30] = test system: KM12 colon
[31] = test system: OVCAR-3 ovarian
[32] = test system: A549 NSCLC
[33] = test system: NCI-H226 lung
[34] = test system: M19-MEL melanoma
[35] = test system: A498 renal
[36] = test system: CCRF-CEM leukemia
[37] = test system: K-562 leukemia
[38] = test system: OVCAR-8 ovarian
[39] = test system: MOLT-4 leukemia
[40] = test system: HT29 colon
[41] = test system: SK-OV-3 ovarian
[42] = test system: 786-0 renal
[43] = test system: HCT-116 colon
[44] = test system: HCT-15 colon
[45] = test system: DLD-1 colon
[46] = test system: SF-295 CNS
[47] = test system: LXFL 529 NSCLC
[48] = test system: RXF 393 renal
[49] = test system: UACC-62 melanoma
[50] = test system: SK-MEL-2 melanoma
[51] = test system: SK-MEL-28 melanoma
[52] = test system: HOP-62 NSCLC
[53] = test system: SK-MEL-5 melanoma
[54] = test system: LOX IMVI melanoma
[55] = test system: XF 498 CNS
[56] = test system: HOP-92 NSCLC
[57] = test system: CAKI-1 renal

Measured: TGI

CC1CC(c2ccc(Cl)cc2)=Nc2ccccc2S1 (stereo not drawn)
not listed: [53] | [54] | [55] | [56] | [57]
> 100 µM: all other assays above

O=C(c1ccccc1)N1C2C3CC(OCc4ccccc4)(OCc4ccccc4)C(O3)C21 (stereo not drawn)
not listed: [13] | [16] | [30] | [31] | [40] | [46]
> 100 µM: all other assays above

C/C(CC(=O)Nc1ccccc1[N+](=O)[O-])=N\NC(N)=O
not listed: [4] | [6] | [13] | [15] | [35] | [44] | [57]
> 100 µM: all other assays above
